Experimental findings from patent US20220395500A1, “SMALL MOLECULE ACTIVATORS OF INTERFERON REGULATORY FACTOR 3 AND METHODS OF USE THEREOF” (Neuralexo, Inc., priority 2020, published 2022) are described below.

The structures appear in SMILES notation. Where only a bound is given, the exact number is not on record here.

The test system of data set [1] is IP-10 in mBMDMs (wild-type and IRF3 KO). The data set is described as follows: IP-10 induction in mouse bone marrow derived macrophages (ELISA). It counts as cell-based. The settings on record: increasing concentrations, wild-type vs IRF3 knock-out cells. As for the experimental part:
IP-10 levels were determined by mouse CXCL10/IP10 ELISA (Invitrogen, Carlsbad, Calif.) and are expressed as pg/ml. Data represents group mean+/−standard deviation.
IP-10 expression was determined by mouse CXCL10/IP10 ELISA (Invitrogen, Carlsbad, Calif.), and is expressed as pg/ml. Data represents group mean+/−standard deviation.
Target specificity of chemical entities corresponding to the ND and NA chemofamiles was examined by determining dose-dependent expression of IP10, a highly inducible, primary response gene that belongs to the C-X-C chemokine superfamily. […] IP-10 expression was monitored by a mouse CXCL10/IP10 ELISA (Invitrogen, Carlsbad, Calif.), and is expressed at FIG. 20 and FIG. 21 as pg/ml.

Data set [2] has as its system cytokines in mBMDMs (wild-type and IRF3 KO). Briefly: Cytokine induction in mBMDMs (20-plex ProcartaPlex, Luminex). It counts as cell-based, mouse. The settings on record: for cytokine induction in mBMDMs (IL6, MCP3, Rantes, TNFa, MCP1, Mip1b, Mip1a, Gro-alpha) vs vehicle: wild-type and IRF3 KO mBMDMs. As for the experimental part:
Cytokine induction is shown for both wild-type mouse mBMDMs and IRF3 KO mouse mBMDMs. Cytokine expression was measured using a cytokine 20-plex mouse ProcartaPlex kit (Invitrogen, Carlsbad, Calif.) for labeling of multiple cytokines within an individual sample and run on a Luminex (Austin, Tex.) 200 instrument. Data is expressed as pg/ml. Shown are group means+/−SEM; […], **p<0.01, ***p<0.001, ****p<0.0001.
Cytokine induction is shown for both wild-type mouse mBMDMs and IRF3 KO mouse mBMDMs. Cytokine expression was measured using a cytokine 20-plex mouse ProcartaPlex kit (Invitrogen) for labeling of multiple cytokines within an individual sample and run on a Luminex 200 instrument. Data is expressed as pg/ml. Shown are group means+/−SEM; […], **p<0.01, ***p<0.001, ****p<0.0001.
Cytokine induction is shown for both wild-type mouse mBMDMs and IRF3 KO mouse mBMDMs. Cytokine expression measured using a cytokine 20-plex mouse ProcartaPlex kit (Invitrogen) for labeling of multiple cytokines within an individual sample and run on a Luminex 200 instrument. Data is expressed as pg/ml. Shown are group means+/−SEM; […], **p<0.01, ***p<0.001, ****p<0.0001.
Cytokine expression at each of FIGS. 22A-23B was monitored using a cytokine 20-plex mouse ProcartaPlex kit (Invitrogen, Carlsbad, Calif.) for labeling of multiple cytokines within an individual sample and run on a Luminex 200 instrument, and is expressed at FIGS. 22A-23B as pg/ml.

Data set [3] has as its system Chikungunya Virus (CHIKV). Briefly: Adjuvant effect on anti-CHIKV total IgG titers (CHIKV VLP prime/boost). It counts as in vivo, mouse. The note with it: C57BL/6 mice, IM prime and boost, 3 weeks post-boost. As to the method: Conditions shown include virus-like particle (VLP) alone, VLP+5 mg/kg ND13, VLP+10 mg/kg ND13, VLP+5 mg/kg NA-42, and VLP+10 mg/kg NA-42. Depicted is Log 10 antibody titer representing anti-CHIKV Total IgG. Individual samples are depicted as filled circles for each condition. Bar graphs represent average geometric mean titers for each treatment cohort+standard deviation.
Select chemical entities corresponding to the NA and ND chemofamilies were examined as to their ability to act as adjuvants to enhance vaccine platforms. FIG. 28 depicts a representative example showing how NA-42 and ND-13 can enhance antibody titers to a Chikungunya Virus (CHIKV) challenge. C57BL/6 mice were primed and boosted IM with 10^6 PFU equivalents of CHIKVLP alone or in the presence of ND13 or NA42; 3 weeks post-boost mice were euthanized and total IgG reactive with CHIKV was measured by ELISA in duplicate. Data presented are average geometric mean titers for each treatment cohort including each animal. Specifically, FIG. 28 depicts various conditions (virus-like particle (VLP), VLP+5 mg/kg ND13, VLP+10 mg/kg ND13, VLP+5 mg/kg NA-42, and VLP+10 mg/kg NA-42) plotted against Log 10 antibody titer representing Anti-CHIKV Total IgG.

Data set [4] has as its system IRF3 activating pathway (TRIF, IPS1, STING) in THF cell lines. Briefly: Interferon dependent luciferase reporter in telomerized human fibroblasts (THF) lacking adapter molecules. Format: cell-based. The note with it: WT THF, IPS1 KO, 23 μM compound or 313 ng/ml LPS. As to the method:
Shown is fold-change of an interferon dependent luciferase reporter expressed in various telomerized human fibroblasts (THF) cell lines lacking key adapter molecules in the IRF3 activating pathway (WT THF, IPS1 KO, STING KO, and TRIF KO) in response to different treatments (untreated, Sendai 1/100, 313 ng/ml LPS, 23 μM NA-42). Shown are group means+/−SEM.
Select chemical entities corresponding to the NA and ND chemofamilies were examined as to their TRIF-dependency of IRF3 induction. TRIF, or TIR-domain-containing adapter-inducing interferon-β, is an adapter in responding to activation of toll-like receptors (TLRs). For reference, FIG. 26A illustrates a cell-signalling pathway including TRIF, along with TLR4, TLR3, IPS1, STING and IRF3. […] The treatment with Sendai 1/100 serves as an IPS1-dependent control, and the treatment with 313 ng/ml LPS serves as a TRIF-dependent control. As shown at FIG. 26B, treatment with 313 ng/ml LPS induces robust IRF3 induction in WT THF, IPS1 KO, and STING KO, but not in the TRIF KO, showing that LPS induction is TRIF-dependent. […] Assessment of fold change IRF3 was determined via measurement of the interferon dependent luciferase reporter.

Data set [5] concerns J774-Dual cells. Briefly: J774-Dual cytotoxicity. It counts as cell-based, mouse. The settings on record: Mouse Reporter Cell Line J774; read-out: J774 cytotox CC50. Summed up:
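CC50 derived from 8-point concentration series in mouse J774-Dual reporter cells, with viability read by CellTiter-Glo in the same plate. Run in parallel with EC50 and ISRE:NFκB ratio determination for cross-species confirmation.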

Turning to `CCOc1cccc(COc2ccc(C(=O)Nc3ccc(N4CCN(C(=O)c5cccs5)CC4)cc3)cc2)c1` [NA-42, 4-((3-ethoxybenzyl)oxy)-N-(4-(4-(thiophene-2-carbonyl)piperazin-1-yl)phenyl)benzamide], the “induction of IP-10 in mBMDMs” value in data set [1] is given as “IRF3 dependent induction”. For the same compound, in data set [2], the “off-target inflammatory activity in mBMDMs” value is “minimal off-target inflammatory activity” and the “cytokine induction in mBMDMs (IL6, MCP3, Rantes, TNFa, MCP1, Mip1b, Mip1a, Gro-alpha) vs vehicle” value is given as “IRF3 dependent cytokine induction”. In addition, the “antibody titers to CHIKV (Anti-CHIKV Total IgG) compared to VLP alone” value (from here on “antibody titers to CHIKV … compared to VLP alone”) in data set [3] (VLP + 5 mg/kg) is “robustly enhances”. For the same compound, the “antibody titers to CHIKV … compared to VLP alone” value in data set [3] (VLP + 10 mg/kg) was “robustly enhances”. In addition, the “TRIF-dependency of IRF3 induction” value in data set [4] is recorded as “TRIF dependent”.

For `COc1ccc(C(=O)Nc2cc(-c3nc4ccccc4s3)ccc2C)cc1[N+](=O)[O-]` [ND52, N-[5-(1,3-benzothiazol-2-yl)-2-methylphenyl]-4-methoxy-3-nitrobenzamide], the CC50 in data set [5] stood at 101 µM.

Take `COc1ccc(C(=O)Nc2cc(-c3nc4cc(C)c(C)cc4o3)ccc2C)cc1[N+](=O)[O-]` [ND-13, N-(5-(5,6-dimethylbenzo[d]oxazol-2-yl)-2-methylphenyl)-4-methoxy-3-nitrobenzamide]: the “induction of IP-10 in mBMDMs” value in data set [1] is on record as “IRF3 dependent induction”. Further, in data set [2], the “off-target inflammatory activity in mBMDMs” value is listed as “minimal off-target inflammatory activity” and the “cytokine induction in mBMDMs (IL6, MCP3, Rantes, TNFa, MCP1, Mip1b, Mip1a, Gro-alpha) vs vehicle” value is given as “IRF3 dependent cytokine induction”. For the same compound, in data set [3] (VLP + 10 mg/kg), the “antibody titers to CHIKV … compared to VLP alone” value is given as “robustly enhances”. The “TRIF-dependency of IRF3 induction” value in data set [4] is on record as “TRIF-dependent”.

For the compound `COc1ccc(C(=O)Nc2cc(-c3nc4ccccc4s3)ccc2C)cc1[N+](=O)[O-]` [ND-38], the CC50 in data set [5] was > 25 µM.
